Conditions in one data set: not given
Turning to `Cc1cc2ccccc2c2ccc3ccccc3c12`, the melting point (in general, the temperature of the solid-liquid transition) was 118 °C.
Compound `O=C(O)C(F)(F)C(F)(F)C(F)(F)C(=O)O` showed a melting point of 80 °C.
The same measure, in the same setting: then `O=C1CCC(c2ccccc2)CC1`, with 79.5 °C; and `O=C(O)CCC(=O)Nc1ccc(S(=O)(=O)Nc2nccs2)cc1`, with 194 °C.
In the case of `N#Cc1ccccc1Br`, the boiling point (usually the temperature at which the vapour pressure of the liquid equals the pressure above it) was found to be 252 °C and the melting point is 55.5 °C.
In the case of `c1ccc2c(-c3cccc4ccccc34)cccc2c1`, the melting point stood at 160 °C.
Regarding `N#Cc1c(Cl)c(Cl)c(Cl)c(Cl)c1C#N`, the ready biodegradability result is “not readily biodegradable”.
For the compound `B1Oc2ccccc2O1`, the melting point was found to be 12 °C.
In turn, `CCOC(C)C` showed a boiling point of 54.1 °C.
In the case of `c1ccc2c(Oc3cccc4ccccc34)cccc2c1`, the melting point is 110 °C.
Compound `CCC/C=C/C=O` yielded a boiling point of 146 °C.
`C=CC(Cl)CCl` (centres undefined): the boiling point turned out to be 116 °C, the log10 vapour pressure (mmHg) was 1.34, the melting point was -61 °C and the ready biodegradability entry is “not readily biodegradable”.
Turning to `SCc1ccc(Cl)cc1`, the melting point was determined as 19.5 °C.
`CC=C(Cl)Cl`: the boiling point was 76.5 °C and the log10 vapour pressure (mmHg) is 1.96.
In the case of `O=Cc1ccc(Cl)cc1`, the boiling point came out at 214 °C and the melting point came out at 47.5 °C.
For the compound `Clc1ccc(Cl)c(-c2ccccc2Cl)c1`, the log10 Henry constant (atm·m³/mol) is -3.6, the log10 Koa worked out at 7.6, the log10 Koc (L/kg) turned out to be 4.4 and the log10 vapour pressure (mmHg) is -2.98.
Consider `CCCSc1ccccc1`, for which the boiling point was 220 °C and the melting point was -45 °C.
On to `O=c1c2ccccc2c(=O)c2c1ccc1[nH]c3c(ccc4c(=O)c5ccccc5c(=O)c43)[nH]c12`, for which the ready biodegradability entry is “not readily biodegradable”.
For `Oc1c(Br)c(Br)c(Br)c(Br)c1Br`, the melting point turned out to be 230 °C and the ready biodegradability result is reported as “not readily biodegradable”.
As to `CC(C)C(Br)C(=O)NC(N)=O` (centres undefined), the melting point was 154 °C.
`CCc1ccc(C)cc1` had a boiling point of 162 °C, a log10 biodegradation half-life (days) of 0.602, a log10 vapour pressure (mmHg) of 0.477 and a melting point of -62.3 °C.
In the case of `CCC(C)C(C)(C)CC` (centres undefined), the boiling point was found to be 140 °C, the log10 vapour pressure (mmHg) is 0.948 and the melting point was -101 °C.
The compound `O=C1OC2(c3ccccc31)c1ccc(O)c(Br)c1Oc1c2ccc(O)c1Br` showed a melting point of 285 °C.
`c1ccc(C(c2ccccc2)(c2ccccc2)c2ccccc2)cc1` returned a boiling point of 431 °C and a melting point of 282 °C.
The compound `Clc1cc2ccc(Cl)c(Cl)c2cc1Cl` showed a log10 Koa of 8.34.
Regarding `O=C(CCl)c1ccc(Cl)cc1`, the boiling point was determined as 270 °C and the melting point came to 102 °C.
Compound `CCOC(=O)C(CCC(C)C)C(=O)OCC` returned a boiling point of 241 °C.
Consider `C[C@@H]1C[C@@H]([C@H](O)CC2CC(=O)NC(=O)C2)C(=O)[C@@H](C)C1`, for which the melting point amounted to 119 °C and the ready biodegradability result is “readily biodegradable”.
`CC(=O)OO` had a boiling point of 110 °C, a log10 Henry constant (atm·m³/mol) of -5.67, a log10 vapour pressure (mmHg) of 1.16 and a melting point of -0.2 °C.
In turn, `C1CCNC1` displayed a boiling point of 86.5 °C, a log10 Henry constant (atm·m³/mol) of -5.62, a log10 Koa of 4.07 and a log10 vapour pressure (mmHg) of 1.8. Besides, the melting point is -57.8 °C.
Take `CC(=O)OO[N+](=O)[O-]`: the boiling point amounted to 106 °C and the log10 Henry constant (atm·m³/mol) was -3.56.
For `CNC(C)C`, the boiling point stood at 50.4 °C.
The compound `Clc1ccc(Oc2ccc(Cl)c(Cl)c2)cc1` returned a log10 vapour pressure (mmHg) of -3.98.
`Cc1ccc2[nH]cnc2c1` registered a melting point of 116 °C.
On the same count and under the same terms, in the case of `CC[C@H]1CN2CC[C@]3(C(=O)Nc4ccccc43)[C@@H]2C[C@@H]1/C(=C\OC)C(=O)OC` it was 216 °C; in that of `CC(C)[C@@H](C)/C=C/[C@@H](C)[C@H]1CC[C@H]2/C(=C/C=C3\C[C@@H](O)CC[C@@H]3C)CCC[C@]12C`, 126 °C.
`CCOC(=O)c1cccc([N+](=O)[O-])c1` returned a boiling point of 297 °C and a melting point of 47 °C.
As for `O=[N+]([O-])c1ccc(Nc2ccccc2)c([N+](=O)[O-])c1`, the log10 vapour pressure (mmHg) is -8.52 and the melting point came to 159 °C.
The compound `Nc1ccccc1C(=O)OCC=Cc1ccccc1` gave a melting point of 61 °C.
On to `O=[N+]([O-])c1ccc(Oc2ccccc2)cc1`, for which the boiling point was 320 °C and the melting point amounted to 61 °C.
`O=C(O)c1cnc(O)nc1O` registered a melting point of 283 °C.
`CCOC=O` yielded a boiling point of 54.4 °C, a log10 Henry constant (atm·m³/mol) of -3.41, a log10 Koa of 2.19 and a log10 vapour pressure (mmHg) of 2.39. This compound also had a melting point of -79.6 °C.
The compound `Fc1ccc(NC(=S)Nc2cc(Cl)cc(Cl)c2)cc1` returned a melting point of 164 °C.
In turn, `CC(Br)C(C)(Br)Br` (centres undefined) registered a boiling point of 206 °C and a melting point of 1.8 °C.
With `Fc1nc(F)c(Cl)c(F)n1`, the boiling point was 114 °C.
In turn, `O=C(O)CCCCl` came in with a melting point of 16 °C.

The same data set, now with this note: fish.
Compound `S=C1NCCN1` registered a log10 BCF of 0.26.
Consider `C=C(C)c1ccccc1`, for which the log10 BCF turned out to be 1.8 and the log10 biotransformation half-life (days) is -0.71.
For the compound `Nc1cccnc1`, the log10 BCF stood at 0.32.
In the case of `C=C(C)CC(C)(C)C`, the log10 BCF stood at 2.78 and the log10 biotransformation half-life (days) came to 0.12.
Consider `C=CC(Cl)CCl` (centres undefined), for which the log10 BCF stood at 1.11 and the log10 biotransformation half-life (days) was -1.28.
`O=Cc1ccc(Cl)cc1` yielded a log10 BCF of 0.32 and a log10 biotransformation half-life (days) of 0.01.
On the same counts, the results for `Clc1ccc(Cl)c(-c2ccccc2Cl)c1` are 4.23 and 1.87.
The compound `C[C@@H]1C[C@@H]([C@H](O)CC2CC(=O)NC(=O)C2)C(=O)[C@@H](C)C1` gave a log10 BCF of 0.45.
